US8153410B2, “Alternate morpheein forms of allosteric proteins as a target for the development of bioactive molecules” (Fox Chase Cancer Center, priority 2003, dated 2012)
Read-outs that look alike come from different tables or passages of the source.

Key:
Assay type in all cases: biochemical
[1] = target: T1, human PBGS (Homo sapiens, UniProt P13716); experiment: human PBGS activity assay with morphlock-1
T1 sequence (P13716 1-330): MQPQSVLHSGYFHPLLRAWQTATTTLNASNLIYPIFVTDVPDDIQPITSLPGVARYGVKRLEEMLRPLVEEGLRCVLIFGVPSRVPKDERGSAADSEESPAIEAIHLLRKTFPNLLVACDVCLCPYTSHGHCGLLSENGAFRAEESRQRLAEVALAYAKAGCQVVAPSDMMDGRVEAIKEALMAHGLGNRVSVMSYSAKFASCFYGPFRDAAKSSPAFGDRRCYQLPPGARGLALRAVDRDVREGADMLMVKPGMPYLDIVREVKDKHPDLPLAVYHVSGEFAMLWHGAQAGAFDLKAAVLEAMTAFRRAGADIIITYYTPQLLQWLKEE
Experimental: (§1) FIG. 33 illustrates the species-specific effects of morphlock-1 on PBGS—FIG. 33(a) Dose-response curves showing morphlock-1 inhibition of pea PBGS at 1 μg/ml (∘) and human PBGS at 0.6 μg/ml (Δ) and 10 μg/ml (□). The proteins were incubated in the presence of 10× inhibitor for 30 minutes at 37° C. prior to assay. The concentrations on the X-axis represent the final concentration of morphlock-1 in the assay. FIG. 33(b). The IC50 for morphlock-1 is a function of pea PBGS concentration. IC50 values were determined as per part (a) using the noted concentrations of pea PBGS. (c) Native PAGE evaluation of the effect of morphlock-1 on the quaternary structure equilibria of PBGS (˜1 mg/ml) from D. melanogaster, P. aeruginosa, V. cholerae, and H. sapiens. Note that the charge/mass ratio is not the same for PBGS from different species.
(§2) The putative morphlock-1 binding site is phylogenetically variable (see below). As such, morphlock-1 would not be expected to inhibit human PBGS. The effect of morphlock-1 on the activity of human PBGS was also determined at the midpoint of the protein concentration-dependent specific activity. […] To further establish the species-selectivity of morphlock-1, the gel shift assay was also carried out for PBGS from P. aeruginosa, and V. cholerae.

[2] = target: T2, pea PBGS (Pisum sativum, UniProt P30124, C394A); experiment: native PAGE gel shift of pea PBGS octamer/hexamer equilibrium
T2 construct: made in house
T2 sequence (P30124 69-398 C394A): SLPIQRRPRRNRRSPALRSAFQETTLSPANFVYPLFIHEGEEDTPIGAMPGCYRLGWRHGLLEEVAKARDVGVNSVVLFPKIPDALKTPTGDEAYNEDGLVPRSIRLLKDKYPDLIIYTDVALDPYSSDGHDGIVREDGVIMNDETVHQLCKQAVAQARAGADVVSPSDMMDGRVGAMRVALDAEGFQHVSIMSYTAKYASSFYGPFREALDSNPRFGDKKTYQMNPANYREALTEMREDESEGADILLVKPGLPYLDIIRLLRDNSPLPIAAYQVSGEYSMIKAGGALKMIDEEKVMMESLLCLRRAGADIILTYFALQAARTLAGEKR
Experimental: FIG. 32(a) The inhibitor morphlock-1 is illustrated as posed by Glide. The subunits A, B, and E are illustrated as ribbon diagram. Morphlock-1 is shown with carbon atoms and illustrated as ball and stick. FIG. 32(b) The chemical structure of morphlock-1. […] Pea PBGS was incubated with various concentrations of morphlock-1 (in a DMSO solution). Each concentration of morphlock-1 with a fixed amount of DMSO was incubated with protein for 30 minutes at 37° C. prior to resolution on 12.5% polyacrylamide native PhastGels. […] (d) The protein concentration dependence of pea PBGS specific activity is illustrated. PBGS (at varied concentrations) was incubated in the presence of DMSO (●) or 50 μM morphlock-1 in DMSO (∘) for 30 minutes at 37° C. prior to assay. The final concentration of morphlock-1 in the inhibited assay was 5 μM, and the concentration of PBGS in the inhibited and control assays ranged from 0.05-50 μg/mL (0.014-1.4 μM).
FIG. 34(b) Hexameric pea PBGS (1 mg/mL, prepared by dialysis against low ionic strength) was incubated with DMSO (left) or 500 μM morphlock-1 (right) for 30 minutes at 37° C. ALA was added at the indicated concentrations, and the incubation was continued for 30 minutes prior to resolution on 12.5% polyacrylamide native PhastGels. […] Morphlock-1 concentrations are listed at the top of each lane. Protein samples for left-most gel were at 50 μg/ml (1.4 μM subunit) and 1 mM ALA; protein detection is by silver staining. Samples for the middle gel were also at 50 μg/ml (1.4 μM subunit) and 1 mM ALA; the gel was activity stained. Samples for the right-most gel were at 5 μg/ml (0.14 μM subunit) and 10 mM magnesium; protein detection is by Krypton Infrared staining.
FIG. 41 illustrates native PAGE screening of compounds. Octameric PBGS (1 mg/mL) was incubated with DMSO or 2 mM of each compound for 30 minutes at 37° C. prior to resolution on 12.5% polyacrylamide native PhastGels. […] Each compound is identified by its box address. The compound B6 is morphlock-1.
The interconversion of pea PBGS hexamer and octamer is a dynamic equilibrium that responds to protein concentration, substrate concentration, magnesium concentration, inhibitor concentration, and ionic strength.

[3] = system: V. cholerae PBGS; experiment: native PAGE gel shift of V. cholerae PBGS; details: V. cholerae PBGS ~1 mg/ml
Experimental: as §1, §2

Question: How did the “effect on the protein concentration-dependent specific activity for human PBGS” value ([1]; 5 μM morphlock-1) turn out when O=C1Nc2ccc(S(=O)(=O)NCC(O)c3ccc([N+](=O)[O-])cc3)c3cccc1c23 (stereo not shown) [morphlock-1, 2-oxo-1,2-dihydro-benzo(cd)indole-6-sulfonic acid[2-hydroxy-2-(4-nitro-phenyl)-ethyl]-amide] was run?
Answer: has no affect

Question: What about the “inhibition of human PBGS activity” value ([1]; midpoint of the protein concentration-dependent specific activity) of the same molecule?
Answer: does not inhibit human PBGS

Question: What about the IC50 ([2]; 5 μg/ml pea PBGS and 10 mM magnesium, Krypton IR detection, read-out: apparent IC50, native PAGE) of the same molecule?
Answer: 1 to 3 µM

Question: What about the IC50 ([2]; 50 μg/ml (1.4 μM subunit) pea PBGS and 1 mM ALA, silver stain, read-out: apparent IC50, native PAGE) of the same molecule?
Answer: ~100 µM

Question: And the “native PAGE screening: shift of oligomeric equilibrium” value ([2]; PBGS 1 mg/mL, 2 mM compound, 30 minutes at 37° C.)?
Answer: dramatically shift the oligomeric equilibrium to the hexamer

Question: And the “hexamer converted to octamer by ALA in the presence of morphlock-1” value ([2]; hexameric pea PBGS 1 mg/mL, 2 mM morphlock-1, 5 mM ALA)?
Answer: ~50%

Question: What about the IC50 ([2]; non-equilibrium conditions, 1 mg/ml (~28 μM subunits) pea PBGS, read-out: observed IC50 in native PAGE analyses) of the same molecule?
Answer: ~500 µM

Question: What about the “effect on pea PBGS morpheein equilibrium, native PAGE” value ([2]; pea PBGS 1 mg/mL, various concentrations of morphlock-1, 30 minutes at 37° C.) of the same molecule?
Answer: draws the pea PBGS morpheein equilibrium entirely to the hexamer in a dose dependent fashion

Question: And the “Coomassie and activity stained native PAGE: binding to hexameric assembly” value ([2]; pea PBGS 1 mg/ml, morphlock-1 at 2 mM)?
Answer: prevents the substrate mediated conversion of hexamer to octamer

Question: What about the “perturbation of the quaternary structure equilibrium, gel shift assay” value [3] of the same molecule?
Answer: did not cause any perturbation of the quaternary structure equilibrium
